Data set [1] has as its target T1, ATP-dependent translocase ABCB1 (Mus musculus, UniProt P21447). The data set is described as follows: TP_TRANSPORTER: increase in plasma concentration in mdr1a(-/-) mouse. The class given is functional, organism-based. The settings on record: in vivo.
Data set [2] has as its target T1, ATP-dependent translocase ABCB1. The data set is described as follows: TP_TRANSPORTER: increase in bioavailability in mdr1a(-/-) mouse. The class given is functional, organism-based. To be noted: in vivo.

The text below walks through data of ChEMBL document CHEMBL2074418, “Limited oral bioavailability and active epithelial excretion of paclitaxel (Taxol) caused by P-glycoprotein in the intestine” (Proc Natl Acad Sci U S A, 1997).

T1 sequence (P21447 whole entry): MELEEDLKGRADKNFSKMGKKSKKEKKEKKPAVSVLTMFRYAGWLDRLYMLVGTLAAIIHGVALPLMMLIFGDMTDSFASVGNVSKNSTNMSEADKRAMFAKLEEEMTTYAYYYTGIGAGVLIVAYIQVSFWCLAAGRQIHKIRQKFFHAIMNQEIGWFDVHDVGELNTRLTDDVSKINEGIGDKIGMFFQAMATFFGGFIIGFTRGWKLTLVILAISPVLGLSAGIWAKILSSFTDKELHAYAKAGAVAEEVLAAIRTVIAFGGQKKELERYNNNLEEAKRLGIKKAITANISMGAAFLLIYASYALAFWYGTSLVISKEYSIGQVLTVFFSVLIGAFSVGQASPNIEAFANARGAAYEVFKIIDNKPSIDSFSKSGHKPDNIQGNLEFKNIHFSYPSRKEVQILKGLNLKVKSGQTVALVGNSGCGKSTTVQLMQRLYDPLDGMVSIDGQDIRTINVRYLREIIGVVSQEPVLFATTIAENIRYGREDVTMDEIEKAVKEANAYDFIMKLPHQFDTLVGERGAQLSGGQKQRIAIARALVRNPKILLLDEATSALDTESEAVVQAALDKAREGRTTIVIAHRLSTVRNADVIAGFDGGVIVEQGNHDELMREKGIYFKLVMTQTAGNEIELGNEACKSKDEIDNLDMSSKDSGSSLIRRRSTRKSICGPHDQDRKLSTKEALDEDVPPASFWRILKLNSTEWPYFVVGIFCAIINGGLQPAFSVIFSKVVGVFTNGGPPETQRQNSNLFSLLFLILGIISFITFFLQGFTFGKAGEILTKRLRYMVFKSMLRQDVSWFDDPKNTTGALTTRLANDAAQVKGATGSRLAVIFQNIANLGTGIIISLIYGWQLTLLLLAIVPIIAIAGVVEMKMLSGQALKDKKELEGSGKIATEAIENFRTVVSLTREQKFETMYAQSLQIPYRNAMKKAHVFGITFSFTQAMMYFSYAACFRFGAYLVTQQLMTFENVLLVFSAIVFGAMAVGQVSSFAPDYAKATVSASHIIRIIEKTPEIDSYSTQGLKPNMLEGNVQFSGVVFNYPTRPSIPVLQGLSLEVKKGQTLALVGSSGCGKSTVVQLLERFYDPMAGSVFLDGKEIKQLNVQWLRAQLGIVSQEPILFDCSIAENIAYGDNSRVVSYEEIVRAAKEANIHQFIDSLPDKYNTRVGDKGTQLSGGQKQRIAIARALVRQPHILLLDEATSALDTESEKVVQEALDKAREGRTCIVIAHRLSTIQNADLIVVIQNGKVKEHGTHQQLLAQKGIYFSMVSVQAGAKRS

For the molecule `CC(=O)O[C@H]1C(=O)[C@@]2(C)[C@H]([C@H](OC(=O)c3ccccc3)[C@]3(O)C[C@H](OC(=O)[C@H](O)[C@@H](NC(=O)c4ccccc4)c4ccccc4)C(C)=C1C3(C)C)[C@]1(OC(C)=O)CO[C@@H]1C[C@@H]2O` [PACLITAXEL], the Activity result in data set [1] and in data set [2] was “substrate [+]” in each case.
